Biological target: T1, streptavidin (Streptomyces avidinii, UniProt P22629)
T1 construct: purchased Sigma-Aldrich S4762
Assay: fl-biotin binding on SA previously immobilized on a PGL coated Epic plate
Settings: SA immobilized at 1.5 micrograms/mL with KH2PO4 on PGL Epic plate (PGL formulation of Example 4A)
Description: Materials: Fluorescein-Biotin from Sigma-Aldrich ref. B943 1; 0.01 M PBS (phosphate buffer); 0.0027 M potassium chloride; and 0.137 M sodium chloride pH 7.4; and dimethylsulfoxide (DMSO).
Preparation of 800 nM fl-biotin solution: 16 microliters of 500 μM fl-biotin solution in DMSO were added to 10 mL of PBS and mixed.
Preparation of PBS/DMSO solution: 16 microliters of DMSO were added to […] of PBS.
Each well of the Epic® plate from Examples 7A, 7B, 9, and 10 was rinsed three (3) times with water using an automatic pipettor. Then 75 microliters of the PBS/DMSO solution were added to each well and the alignment of the optical parts was performed. The plate was left undisturbed until reaching a stable baseline. After reaching a stable base line, 75 microliters of the fl-biotin solution were added to each well and mixed continuously for 2 mins using an automatic pipettor. In the course of the mixing, the binding curve was recorded in real time.
Materials: Unlabeled Streptavidine; KH2PO4 from Sigma-Aldrich ref. P5504; and PBS buffer. First, a […] KH2PO4 solution was prepared and its pH was adjusted to 8. Then 75 microliters of this solution were added to each well from a PGL Epic® coated plate prepared using PGL formulation of Example 4A. The alignment of the optical parts was performed and the plate was left undisturbed until a stable baseline was reached. […]

T1 sequence (P22629 25-183): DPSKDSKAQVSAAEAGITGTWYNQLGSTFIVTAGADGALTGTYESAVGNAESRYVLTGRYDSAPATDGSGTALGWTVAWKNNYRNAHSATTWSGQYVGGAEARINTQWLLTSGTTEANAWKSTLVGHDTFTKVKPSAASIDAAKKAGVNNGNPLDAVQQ

## O=C(CCCCCNC(=O)CCCC[C@@H]1SC[C@@H]2NC(=O)N[C@@H]21)NCCCCCNC(=S)Nc1ccc2c(c1)C(=O)OC21c2ccc(O)cc2Oc2cc(O)ccc21 [fl-biotin, Fluorescein-Biotin]
  binding of fl-biotin on immobilized SA: easily observed

Reference: patent US20100021954A1, “High capacity nanoparticulate immobilization surface” (priority 2008, published 2010)
